Data: US10781183B2, “Small molecule inducers of reactive oxygen species and inhibitors of mitochondrial activity” (The Regents of the University of Michigan, priority 2016, dated 2020)
Read-outs that look alike come from different tables or passages of the source.

Legend:
MiaPaCa-2 cells [1] = experiment: ROS detection assay (H2DCFDA probe); type: cell-based
Description: To quantify ROS induction by redox modulators, a high throughput ROS assay in 384-well plates using H2DCFDA as the ROS detection probe was developed (FIG. 1A).
Cells were detached by 0.05% trypsin-EDTA, neutralized, centrifuged (1200 rpm, 5 min) and resuspended in cell culture media. Suspension were then treated with 20 μM cell permeable H2DCFDA for 30 min at 37° C. Cells were then centrifuged (1200 rpm, 5 min) and washed with cell culture media to remove excess probe. After washing, cells were placed in black-wall 384-well plate at 20,000 cells/well, incubated for 30 min and treated by compounds at designated conditions. Fluorescent signal were then read at 493 nm/523 nm on BioTek H1 plate reader for ROS detection.

BxPC-3 cells = experiment: MTT cytotoxicity assay, BxPC-3; type: cell-based; conditions: Homo sapiens, three independent experiments
Description: (§1) MiaPaCa-2, Panc-1 and BxPC-3 pancreatic cancer cell lines were obtained from the ATCC. Normal pancreatic cells HPDE and HPNE were kindly provided (Translational Oncology Program, University of […], Ann Arbor, Mich.). Gemcitabine resistant cell line MiaPaCa-2-GR (gemcitabine resistant) was kindly provided (Department of Pathology, Wayne State University, Detroit, Mich.). All cell lines were cultured as monolayer and maintained in RPMI1640 supplemented with 10% fetal bovine serum (FBS) in a humidified atmosphere with 5% CO2 at 37° C. MiaPaCa-2-GR culture was supplemented with 200 nM gemcitabine.
(§2) Cytotoxicity of compounds was evaluated with 3-(4,5-dimethylthiazol-2-yl)-2,5-diphenyltetrazolium bromide (MTT) assay. Cells were placed in 96-well plate at 3000-8000 cells/well. After overnight attachment, compounds were added to the wells at sequential dilutions (30 nM-10 μM for most cell lines). After 72 h treatment, MTT was added into the media to a final concentration of 300 μg/mL. Cells were incubated for 3 h at 37° C., and the insoluble formazan converted by viable cells were dissolved in 150 μL of DMSO. Absorbance at 570 nm was read by microplate reader (Molecular devices, Sunnyvale, Calif.), and inhibition of cell proliferation was calculated using the following formula: Inhibition of cell proliferation (%)=(1−ODtreatment/ODcontrol)×100%

[2] = Systemic toxicity in MiaPaCa-2 engrafted mice
Description: (§3) MiaPaCa-2 cells (2.0×10^6) in a 100 μL suspension of RPMI1640 was injected subcutaneously into dorsal flank of 6-week NOD/SCID mice. Tumor size was monitored twice a week through caliper measurement using the following equation: V=d^2×D/2, where d represents width and D represents length of the tumor. In study 1, mice were randomly grouped (n=5 per group) when average tumor size reached 65 mm^3. Daily treatment was given at five days on two days off cycles. QD325 was given at 5 mg/kg in 100 μL vehicle (5% DMSO, 60% Propylene glycol, 35% Saline) by intraperitoneal injection. […] Unpaired t test was performed for data analysis and p<0.05 was considered significant. […] Procedures for study 2 with gemcitabine treatment are detailed in supplemental information.
(§4) On necropsy, tumors, hearts, kidneys, livers, lungs, spleens and pancreases were collected, fixed in 10% neutral buffered formalin, embedded in paraffin, and sectioned. Sections ([…]) were stained with hematoxylin and eosin to facilitate histologic examination. For Ki67 expression level, immunohistochemistry staining was performed on sections with Ki67 antibody. Embedding, sectioning and staining of samples were performed by ULAM pathology core for animal research at the University of Michigan. Representative images were taken on Olympus IX83 microscope with 20× magnification.

MiaPaCa-2 cells [3] = experiment: Bru-seq analysis for nascent RNA synthesis; type: cell-based
Description: A bromouridine labeled RNA sequencing (Bru-seq) technique was used to better characterize molecular mechanisms of these novel agents. Bru-seq is able to capture real-time synthesis of the nascent RNA, so as to provide information on global gene transcription without interference by RNA stability or biased gene selection (Paulsen et al., 2014, Paulsen et al., 2013). […] Profiling of all genes with >1.5-fold change in expression upon treatment of QD232 or QD325 identified NRF2-mediated oxidative stress response and unfolded protein response (UPR) as key pathways implicated in drug action (FIG. 8A).
Bru-seq analysis was performed as previously reported (Paulsen et al., 2014). Briefly, 4×10^6 MiaPaCa-2 cells were placed in 10 cm dishes on Day 1. On Day 2, cells were treated with DMSO, QD232 or QD325 for 4 h. Bromouridine was added into the media to label newly synthesized nascent RNA in the last 30 min of treatment to a final concentration of 2 mM. Cells were then collected in TRIZOL and total RNA was isolated. Bromouridine containing RNA population was further isolated and sent for sequencing. Sequencing reads were mapped to the HG19 reference genome. Pre-ranked gene lists were generated for each treatment through ranking genes by fold changes in gene synthesis levels compared with control, and analyzed with GSEA (Broad Institute, MA) (Subramanian et al., 2005, Mootha et al., 2003)

HPDE = experiment: MTT cytotoxicity assay, immortalized pancreatic cell line HPDE; type: cell-based, human; conditions: HPDE vs MiaPaCa-2
Description: as §1, §2

MiaPaCa-2 cells [4] = experiment: MTT cytotoxicity assay, MiaPaCa-2; type: cell-based; conditions: for IC50: Homo sapiens, Mean ± SD, three independent experiments
Description: as §1, §2

MiaPaCa-2 xenograft = MiaPaCa-2 xenograft studies; type: in vivo, NOD/SCID mice
Description: as §3, §4

Panc-1 cells = experiment: MTT cytotoxicity assay, Panc-1; type: cell-based; conditions: three independent experiments
Description: as §1, §2

SMILES: O=C1C(Nc2ccc(-c3ccccc3)cc2)=CC(=O)c2ncncc21 [QD325, 6-([1,1′-biphenyl]-4-ylamino)quinazoline-5,8-dione]
- ROS induction compared with lead compound QD232 (MiaPaCa-2 cells [1]; MiaPaCa-2, 24 h treatment, 10 μM (FIG. 1C)): significantly higher ROS induction than the lead compound QD232
- accumulation of ROS (MiaPaCa-2 cells [1]; MiaPaCa-2, 10, 3.3 or 1.1 μM (FIG. 3A)): time- and dose-dependent accumulation of ROS
- ROS accumulation at 10 and 3.3 μM (MiaPaCa-2 cells [1]; MiaPaCa-2, 10 and 3.3 μM): rapid and high ROS accumulation
- ROS induction after NAC pretreatment (MiaPaCa-2 cells [1]; MiaPaCa-2, NAC 5 mM for 30 min pretreatment (FIG. 3B)): inhibited
- IC50 (BxPC-3 cells; BXPC-3, 72 h, Table 1, 72 h, Mean ± SD): < 1000 nM
- IC50 (BxPC-3 cells; BXPC-3, Table 2, Mean ± SD, read-out: IC 50 BxPC-3): 500 ± 100 nM
- body weight of engrafted mice ([2]; QD325 5 mg/kg (FIG. 12B)): not affected
- body weight of engrafted mice ([2]; QD325 5-20 mg/kg (FIG. 13B)): not affected
- systemic toxicity at higher doses ([2]; doses as high as 20 mg/kg): no systemic toxicity was observed
- histopathology of H&E stained organ sections ([2]; liver, kidney, heart, lung, spleen and pancreas, QD325 5 mg/kg (FIG. 12C)): did not reveal major histopathological changes
- apoptosis signaling (IPA analysis) (MiaPaCa-2 cells [3]; 4 h, QD232 3 times IC50, QD325 5 times IC50 (FIG. 4)): significant activation of apoptosis signaling
- nascent RNA synthesis of mitochondrial genome (MiaPaCa-2 cells [3]; 4 h, QD232 at 6.9 μM, QD325 at 5.0 μM (FIG. 10A)): inhibited
- transcription of DDIT3 and HSPA5 (MiaPaCa-2 cells [3]; 4 h treatment, dose dependently (FIG. 8C)): significantly increased
- synthesis of NQO1 and HMOX1 RNAs (MiaPaCa-2 cells [3]; 4 h treatment, QD232 at 1, 2 or 3 times IC50, QD325 at 1, 2 or 5 times IC50 (FIG. 8B)): dose-dependently upregulated
- selectivity for MiaPaCa-2 over HPDE (HPDE): 3 fold
- IC50 (MiaPaCa-2 cells [4]; MIA PaCa-2, 72 h, Table 1, MTT assay, 72 h): < 1000 nM
- IC50 (MiaPaCa-2 cells [4]; MIA PaCa-2, Table 2, MTT assay, read-out: IC 50 MiaPaCa-2): 900 ± 200 nM
- improvement in cytotoxicity compared with QD232 (MiaPaCa-2 cells [4]; MTT assay in PDAC cell lines MiaPaCa-2, Panc-1 and BxPC-3): more than two fold improvement in cytotoxicity
- cytotoxicity in presence of NAC (MiaPaCa-2 cells [4]; MTT assay, 72 h, NAC 5 mM (FIG. 3C)): decreased cytotoxicity
- average tumor size at the end of the 48-day treatment period (MiaPaCa-2 xenograft; QD325 5 mg/kg five times a week, gemcitabine 15 mg/kg once a week, control 1503±189 mm^3): 248±72 mm^3
- growth of tumors (MiaPaCa-2 xenograft; QD325 5 mg/kg i.p. five times a week, treatment period of 44 days): significantly delayed growth of tumors
- average tumor size on day 44 (MiaPaCa-2 xenograft; QD325 5 mg/kg i.p. five times a week, n=5, control 1291±168 mm^3): 308±72 mm^3
- NQO1, HO-1, CHOP and GRP78 protein levels in tumor lysates (MiaPaCa-2 xenograft; QD325 treated tumors vs vehicle controls (FIG. 12E)): significantly upregulated
- growth of tumors at higher doses (MiaPaCa-2 xenograft; after day 44, dose increased from 5 to 20 mg/kg until day 67, two mice per group): able to delay growth of the tumors
- Ki67 levels in tumor tissues (MiaPaCa-2 xenograft; immunohistochemistry of xenograft sections, QD325 5 mg/kg (FIG. 12D)): decreased Ki67 levels
- IC50 (Panc-1 cells; Homo sapiens, PANC-1, Table 2, Mean ± SD, read-out: IC 50 Panc-1): 400 ± 100 nM
- IC50 (Panc-1 cells; Table 1, 72 h, Mean ± SD): < 1000 nM
